Among the data in the METLIN SMRT retention time set (Domingo-Almenara et al. 2019) are RP-LC retention time values, retold here.

This series is described as follows: gradient 5% acetonitrile 3 min, to 50% in 2 min, to 85% in 15 min, held 3 min, 100 µL/min. The conditions noted are these: column: Zorbax Extend-C18 2.1 x 50 mm; eluents: water / acetonitrile, 0.1% formic acid. A digest of the protocol: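 In both positive and negative ionization mode, a quadrupole time-of-flight mass spectrometer coupled to HPLC analyzed pure standards run in mixtures of ~100 molecules. The Zorbax Extend-C18 column (2.1 × 50 mm, 1.8 μm) was operated at 100 μL/min with water and acetonitrile, each containing 0.1% formic acid. The dead volume was 40 μL and the dwell volume 900 μL. Retention time came from adduct peaks that were computationally picked and individually inspected by hand.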
Consider `O=C(Cc1ccc(NC(=O)C2COc3ccccc3O2)cc1)NCC(F)(F)F` (centres undefined), for which the RP-LC retention time is 576 s. `COc1cc(C(=O)N2CCN(c3cc(C(C)C)n4cnnc4n3)CC2)cc(OC)c1OC` returned an RP-LC retention time of 613 s. As for `c1ccn(CCc2ccncc2)c1`, the RP-LC retention time was found to be 616 s. Consider `CCc1ccc(S(=O)(=O)N2CCN(c3ccc4nncn4n3)CC2)s1`, for which the RP-LC retention time is 693 s. With `Cc1ccc(Cc2nc(-c3ccc4oc(C)nc4c3)no2)cc1` the figure was 1070 s; with `Cc1noc(-c2cccn2Cc2ccc(Cl)cc2)n1`, 1090 s; with `Cc1ccc(NC(=O)Cn2nc(N3CCCCCC3)c3ccccc3c2=O)cc1C`, 1200 s. As for `Cc1nc(N2CCN(CCO)CC2)nc2c1C(=O)CC(c1cccc(Cl)c1)C2` (centres undefined), the RP-LC retention time was 693 s.

`O=C(CCc1ccc2[nH]ccc2c1)N1CCN(c2ccccc2)CC1` showed an RP-LC retention time of 856 s.

`CCOC(=O)N1CCN(C(=O)C2CC2c2ccc(F)cc2)CC1` (centres undefined) returned an RP-LC retention time of 755 s. With `O=C(CCc1ccccc1)NC1(c2nc(-c3ccncc3)no2)CCCCC1`, the RP-LC retention time worked out at 902 s. As for `CCCn1cnc2cc(CNC(=O)Cc3ccsc3)ccc21`, the RP-LC retention time is 619 s. Compound `COc1cccc2nnc(NC(=O)CCC(=O)NCC(C)C)n12` returned an RP-LC retention time of 587 s. `COc1ccc(-c2cc3c4nn(CC(=O)Nc5cccc(C)c5C)c(=O)n4ccn3n2)cc1` showed an RP-LC retention time of 840 s. Compound `Cc1cc(NC(=O)NC(=O)c2ccccc2NC(=O)CN)ccc1Oc1ncc(Br)cn1` registered an RP-LC retention time of 653 s. For `CCc1ccc(OCC(=O)Nc2ccc(S(N)(=O)=O)cc2)c(Br)c1`, the RP-LC retention time is 836 s. `Cc1nn(C)c(=O)c2cc(S(=O)(=O)NCc3ccccc3)cn12` displayed an RP-LC retention time of 776 s. Then `O=C(c1ccc2nccnc2c1)N1CCC(c2nnc(C(F)(F)F)o2)CC1`, with 653 s.

Compound `Cc1ccc(F)cc1NC(=O)CSc1nc(N2CCCCC2)nc2ccccc12` registered an RP-LC retention time of 778 s.

`O=C(NCc1ccccn1)C1CCc2sc(C(=O)N3CCCCC3)cc2C1` (centres undefined) had an RP-LC retention time of 506 s. Compound `CCOC(=O)c1noc2nc(C)nc(Nc3cccc(Cl)c3)c12` gave an RP-LC retention time of 1200 s. Compound `COc1ccc(-c2ncc3c(n2)CCN(C(=O)Nc2cc(Cl)ccc2C)C3)cc1` came in with an RP-LC retention time of 984 s.

As for `O=C(CCc1nc2ccccc2n(CC(=O)Nc2cc(F)cc(F)c2)c1=O)NCc1ccccc1`, the RP-LC retention time is 890 s. `Cc1nc(C)c(-c2ccc(=O)n(CCNS(=O)(=O)c3ccc4c(c3)OCCO4)n2)s1` registered an RP-LC retention time of 642 s. For `O=C(O)c1ccc(Nc2c(-c3cccc(Br)c3)nc3cnccn23)cc1`, the RP-LC retention time stood at 736 s. In turn, `COc1ccc(-c2noc(CSc3nccn3-c3ccccc3)n2)cc1` came in with an RP-LC retention time of 869 s. The compound `CCCc1noc(-c2ccc3nnc(CC(=O)Nc4ccc(F)cc4)n3c2)n1` came in with an RP-LC retention time of 848 s.

Take `Cc1scc2nc(C3CCC3)nc(N3CCC(C(=O)N4CCN(c5ccccc5F)CC4)CC3)c12`: the RP-LC retention time stood at 838 s. As for `CCOC(=O)N1CCN(c2nc(-c3cccc([N+](=O)[O-])c3)cs2)CC1`, the RP-LC retention time amounted to 1080 s. As for `COc1ccc(/C(=N/O)C(c2ccc(OC)cc2)C2C(=O)Oc3ccccc32)cc1` (centres undefined), the RP-LC retention time turned out to be 840 s. `COc1cc(C(=O)N2CCC3(CC2)NC(=O)c2ccc(Cl)cc2N3)cc(OC)c1OC`: the RP-LC retention time stood at 721 s. With `COc1ccc(CCNC(=O)Cn2nc3n(c2=O)CCCC3)cc1OC` the figure was 613 s; with `O=S1(=O)C[C@H](N2CCN(c3ccccn3)CC2)[C@@H](S(=O)(=O)c2cccs2)C1`, 586 s. With `Cc1ccc(-n2nc(C(=O)N3CCN(c4ccccn4)CC3)c3ncn(C)c(=O)c32)cc1` the figure was 608 s; with `CCNS(=O)(=O)c1cccnc1Nc1ccc(F)c(Cl)c1`, 1040 s; with `Cc1oc(C(C)C)nc1C(=O)NCc1cccs1`, 897 s.

Consider `CCOc1ccc(C(=O)NCc2c(-c3ccccc3)nc3sc(CC)nn23)cc1`, for which the RP-LC retention time amounted to 943 s. On to `CCOc1ccc(S(=O)(=O)N2CCC(C(=O)NCc3ccncc3)CC2)cc1C`, for which the RP-LC retention time is 662 s. The compound `Cc1ccc(S(=O)(=O)NC2CCN(c3ncnc4c3CCC4)C2)cc1` (centres undefined) came in with an RP-LC retention time of 628 s. As to `O=C(c1ccc(-n2cnnn2)cc1)N1CCN(c2ccccn2)CC1`, the RP-LC retention time was found to be 567 s. In turn, `CC(C)N1C(=O)C(C)(C(=O)NCc2ccc(Br)cc2)Oc2cccnc21` (centres undefined) displayed an RP-LC retention time of 1010 s. `Cc1nc(C)c(-c2ccc(=O)[nH]n2)s1` had an RP-LC retention time of 558 s. Turning to `Cc1nn(C)c(C)c1CNC(=O)CN1C(=O)C2CCCCN2c2ccc(C(=O)N3CCCC3)cc21` (centres undefined), the RP-LC retention time was 654 s. Regarding `COc1ccc(Nc2cc(C(=O)N3CCCCC3)nc3c(OC)cccc23)cc1OC`, the RP-LC retention time stood at 570 s. On to `CC1CCN(S(=O)(=O)N2CCC(C(=O)N3CCC(Cc4nncn4CC4CC4)CC3)CC2)CC1`, for which the RP-LC retention time was determined as 751 s. In the case of `CCOc1ccc(CNC(=O)CCc2c(-c3ccc(Br)cc3)nc3ccccn23)cc1`, the RP-LC retention time was 717 s.

In the case of `CCOc1cc(C(=O)N(CC)c2nc(-c3ccccc3)cs2)cc(OCC)c1OCC`, the RP-LC retention time turned out to be 663 s. Consider `O=C(NCc1ccc(Br)cc1)c1sc2ncccc2c1-n1cccc1`, for which the RP-LC retention time was determined as 1090 s. `COc1ccccc1NC(=O)N1CCCC(C)(C(=O)NCc2ccccc2C)C1` (centres undefined) registered an RP-LC retention time of 859 s. `CCCc1noc(-c2ccc(-n3cnc(C(=O)NC4CCCC4)c3)nc2)n1` came in with an RP-LC retention time of 915 s. Compound `Cc1[nH]c(-c2ccc(F)cc2)cc1C(=O)N1CC=C(c2ccccc2)CC1` displayed an RP-LC retention time of 1030 s.

`COC(=O)c1c(C)[nH]c(C(=O)N2CCC(CC(=O)NCc3cccc(C)c3)CC2)c1C` registered an RP-LC retention time of 748 s. `CC(C)CC(=O)Nc1ccc(-n2cnc(C(=O)N3CCC4(CC3)OCCO4)c2)nc1` returned an RP-LC retention time of 677 s. Then `O=C(NC1CCN(c2cc(-c3cccnc3)[nH]n2)CC1)c1ccc(F)c(Cl)c1`, with 643 s; and `O=C(NCCC1CCN(C(=O)Nc2cc(F)ccc2F)CC1)C1CCCC1`, with 769 s. On to `CC1Oc2ccc(-c3csc(NC(=O)c4ccco4)n3)cc2NC1=O` (centres undefined), for which the RP-LC retention time was 783 s. `Nc1ccc(C(=O)c2ccccc2)cc1[N+](=O)[O-]` yielded an RP-LC retention time of 783 s. With `CCc1ccc(NC(=O)Cn2c(C)nc3c(sc4nc(-c5ccccc5)ccc43)c2=O)cc1`, the RP-LC retention time was determined as 1120 s. Compound `CCOC(=O)Cc1sc(Nc2c(C)n[nH]c2C)nc1-c1ccccc1` displayed an RP-LC retention time of 688 s. On to `CCC(C)NC(=O)C1CCN(S(=O)(=O)c2cn(C(C)C)cn2)CC1` (centres undefined), for which the RP-LC retention time is 669 s.

Regarding `Nc1nccc(Oc2ccc(NC(=O)c3c[nH]cc(-c4ccc(F)cc4)c3=O)cc2F)c1Cl`, the RP-LC retention time was 751 s.

On to `Cc1cc(Cl)ccc1NS(=O)(=O)c1ccc2onc(C(=O)N3CCCC3)c2c1`, for which the RP-LC retention time stood at 1030 s. The compound `Cc1nncn1C1CN(C(=O)c2ccc(OC(F)(F)F)cc2)C1` displayed an RP-LC retention time of 654 s. With `O=C(NCc1cccc(Cl)c1)c1cc(C2CC2)n2nccc2n1` the figure was 974 s; with `COc1ccc(-c2c(C)noc2NC(C)=O)cc1S(=O)(=O)Nc1ccc(F)c(F)c1`, 748 s; with `NC(=O)CNC(=O)c1sc2ncccc2c1-n1cccc1`, 622 s.

`CCCC(NC(=O)CCc1c(-c2ccc(Cl)cc2)nc2ccccn12)c1cccs1` (centres undefined) registered an RP-LC retention time of 767 s. Regarding `Cc1cc2c(c(=O)n(-c3ccc(F)cc3)c(=O)n2CC(=O)Nc2ccc(C(F)(F)F)cc2)n1C`, the RP-LC retention time came to 942 s. Then `Cc1c(CNCc2ccco2)c(C(=O)O)c(C)n1Cc1cccc(Cl)c1`, with 702 s. Take `CC(C)n1cc(C2=CCN(C(=O)NC3CCCC3)CC2)c2cccnc21`: the RP-LC retention time is 878 s. `CCc1ccc(NC(=O)C2CCN(S(=O)(=O)c3ccc4c(c3)NC(=O)C(CC)O4)CC2)cc1` (centres undefined) gave an RP-LC retention time of 963 s.

For the compound `Cc1ccc(C)c(NC(=O)N2CCN(c3cc(-c4ccncc4)[nH]n3)CC2)c1`, the RP-LC retention time worked out at 615 s. Turning to `O=C(NC1CC1)C1Cc2ccccc2CN1S(=O)(=O)c1ccc(Cl)cc1` (centres undefined), the RP-LC retention time worked out at 909 s. Compound `Cc1ccc(-c2noc(C3CCCN3C(=O)c3ccc(C(C)(C)C)cc3)n2)cc1` (centres undefined) yielded an RP-LC retention time of 1280 s. Turning to `COc1ccc(OC)c(NC(=O)N2c3ccccc3CC2c2nc(C3CC3)no2)c1` (centres undefined), the RP-LC retention time was found to be 1110 s. Compound `O=[N+]([O-])c1ccc2[nH]c3nc4ccccc4nc3c2c1` yielded an RP-LC retention time of 876 s.

`CCN1CCCn2nc(C3CCN(C(=O)c4cccc(C(F)(F)F)c4)CC3)cc2C1=O` gave an RP-LC retention time of 785 s. Then `O=C(C1=CN(c2ccc3c(c2)OCO3)c2cc(F)ccc2S1(=O)=O)N1CCCC1`, with 796 s; and `CNC(=O)c1ccc(-c2nc3cc(NS(=O)(=O)c4cccc(Cl)c4)ccc3n2C)cc1`, with 653 s.
